In brackets after ≈: the same amount, converted by molar mass. Like-named read-outs stand apart in the source and are kept apart here.
Experiments:
Test in all cases: MIC determination
E. faecium 106 (Van R) = assay type: cell-based; conditions: Enterococcus faecium; vancomycin-resistant clinical isolate; Tables 1 and 5; read-out: MIC
Source text: (§1) The ESKAPE organisms (E. faecium NCTC (ATCC 19734), S. aureus ATCC 29213, K. pneumonia ATCC 700603, A. baumannii ATCC 17961, P. aeruginosa ATCC 17853, E. aerogenes ATCC 35029) and E. coli ATCC 25922) in the initial screen, S. aureus ATCC 27660, S. epidermis ATCC 35547, S. haemolyticus ATCC 29970, S. oralis ATCC 9811, S. pyogenes ATCC 49399, B. cereus ATCC 13061, B. licheniformis ATCC 12759, and E. faecalis ATCC 29212 were purchased from the American Type Culture Collection (Manassas, Va., USA). S. aureus strains NRS100, NRS119, NRS120, VRS1, and VRS2 were obtained from the Network on Antimicrobial Resistance in Staphylococcus aureus (Chantilly, Va., USA). E. faecalis strains 201 and 99, and E. faecium strains 119-39A and 106 were collected from Wayne State University School of Medicine.
(§2) The procedure for MIC determination was the same as previously reported (Tran et al., Am. J. Clin. Dermatol. 2015; doi 10.1007/S40257-015-0125-9).

S. aureus VRS2 = assay type: cell-based; conditions: Staphylococcus aureus; vancomycin-resistant MRSA (vanA) isolate from Pennsylvania; Tables 1 and 5; read-out: MIC
Source text: as §1, §2

S. aureus ATCC 27660 = assay type: cell-based; conditions: Staphylococcus aureus, ATCC27660; mecA positive, resistant to methicillin, oxacillin, tetracycline; Tables 1 and 5; read-out: MIC
Source text: as §1, §2

S. aureus NRS100 (COL) = assay type: cell-based; conditions: Staphylococcus aureus, mecA positive, resistant to methicillin, oxacillin, tetracycline, Tables 1 and 5, read-out: MIC
Source text: as §1, §2

S. aureus VRS1 = assay type: cell-based; conditions: Staphylococcus aureus; vancomycin-resistant MRSA (vanA) isolate from Michigan; Tables 1 and 5; read-out: MIC
Source text: as §1, §2

B. cereus ATCC 13061 = assay type: cell-based; conditions: Bacillus cereus, ATCC13061; Tables 1 and 5; read-out: MIC
Source text: as §1, §2

S. epidermis ATCC 35547 = assay type: cell-based; conditions: Tables 1 and 5; read-out: MIC
Source text: as §1, §2

S. aureus NRS120 = assay type: cell-based; conditions: Staphylococcus aureus, mecA positive, linezolid-resistant, Tables 1 and 5, read-out: MIC
Source text: as §1, §2

E. faecalis ATCC 29212 = assay type: cell-based; conditions: Enterococcus faecalis, ATCC29212; quality-control strain; Tables 1 and 5; read-out: MIC
Source text: as §1, §2

[1] = system: B. licheniformis ATCC 12759; assay type: cell-based; conditions: Bacillus licheniformis, ATCC12759; Tables 1 and 5; read-out: MIC
Source text: as §1, §2

E. faecalis 99 (Van R) = assay type: cell-based; conditions: Enterococcus faecalis; vancomycin-resistant clinical isolate; Tables 1 and 5
Source text: as §1, §2

E. faecalis 201 (Van S) = assay type: cell-based; conditions: Enterococcus faecalis; vancomycin-susceptible clinical isolate; Tables 1 and 5; read-out: MIC
Source text: as §1, §2

[2] = system: S. haemolyticus ATCC 29970; assay type: cell-based; conditions: Staphylococcus haemolyticus, ATCC29970; Tables 1 and 5; read-out: MIC
Source text: as §1, §2

S. aureus NRS119 = assay type: cell-based; conditions: Staphylococcus aureus, mecA positive, linezolid-resistant, Tables 1 and 5, read-out: MIC
Source text: as §1, §2

[3] = system: E. faecium 119-39A (Van S); assay type: cell-based; conditions: Enterococcus faecium; vancomycin-susceptible clinical isolate; Tables 1 and 5; read-out: MIC
Source text: as §1, §2

S. aureus ATCC 29213 = assay type: cell-based, Staphylococcus aureus; conditions: for MIC: Staphylococcus aureus, read-out: MIC
E. faecium C68 = assay type: cell-based; conditions: Enterococcus faecium, vancomycin-resistant clinical strain from Cleveland hospitals, Table 5
Source text: as §2

[4] = ATCC29213, S. aureus ATCC29213, second numbering, compounds of Scheme 6
[5] = ATCC29213, quality-control, methicillin-susceptible strain, Tables 1 and 5

| MIC (E. faecium 106 (Van R)) [µg/mL] | MIC (S. aureus VRS2) [µg/mL] | MIC (S. aureus ATCC 27660) [µg/mL] | MIC (S. aureus NRS100 (COL)) [µg/mL] | MIC (S. aureus VRS1) [µg/mL] | MIC (B. cereus ATCC 13061) [µg/mL] | MIC (S. epidermis ATCC 35547) [µg/mL] | MIC (S. aureus NRS120) [µg/mL] | MIC (E. faecalis ATCC 29212) [µg/mL] | MIC [1] [µg/mL] | MIC (E. faecalis 99 (Van R)) [µg/mL] | MIC (E. faecalis 201 (Van S)) [µg/mL] | MIC (S. aureus NRS119) [µg/mL] | MIC [3] [µg/mL] | MIC (S. aureus ATCC 29213; [4]) [µg/mL] | MIC (S. aureus ATCC 29213; [5]) [µg/mL] | MIC (E. faecium C68) [µg/mL] | SMILES | MIC [2] [µg/mL] | antibacterial activity in words (SAR, C/D ring derivatives) (S. aureus ATCC 29213; S. aureus ATCC29213, second numbering, compounds of Scheme 6) |
| --- | --- | --- | --- | --- | --- | --- | --- | --- | --- | --- | --- | --- | --- | --- | --- | --- | --- | --- | --- |
| 8 (≈ 23.1 µM) | 8 (≈ 23.1 µM) | 16 (≈ 46.2 µM) | 16 (≈ 46.2 µM) | 8 (≈ 23.1 µM) | 8 (≈ 23.1 µM) | 16 (≈ 46.2 µM) | 8 (≈ 23.1 µM) | 8 (≈ 23.1 µM) | 16 (≈ 46.2 µM) | 16 (≈ 46.2 µM) | 8 (≈ 23.1 µM) | 8 (≈ 23.1 µM) | 8 (≈ 23.1 µM) | 2 (≈ 5.77 µM) | 2 (≈ 5.77 µM) | 8 (≈ 23.1 µM) | Oc1ccc(-c2nc(-c3ccc(Oc4ccccc4)c(O)c3)no2)cc1 [Compound 51a, 5-(5-(4-hydroxyphenyl)-1,2,4-oxadiazol-3-yl)-2-phenoxyphenol] | 8 (≈ 23.1 µM) | – |
| 4 (≈ 11 µM) | 2 (≈ 5.48 µM) | 8 (≈ 21.9 µM) | 8 (≈ 21.9 µM) | 2 (≈ 5.48 µM) | 4 (≈ 11 µM) | 4 (≈ 11 µM) | 4 (≈ 11 µM) | 4 (≈ 11 µM) | 2 (≈ 5.48 µM) | 4 (≈ 11 µM) | 4 (≈ 11 µM) | 4 (≈ 11 µM) | 4 (≈ 11 µM) | 2 (≈ 5.48 µM) | 2 (≈ 5.48 µM) | 4 (≈ 11 µM) | Oc1ccc(-c2nc(-c3ccc(Oc4ccccc4)cc3Cl)no2)cc1 [Compound 52a, 4-(3-(2-chloro-4-phenoxyphenyl)-1,2,4-oxadiazol-5-yl)phenol] | 4 (≈ 11 µM) | – |
| 4 (≈ 10.8 µM) | 2 (≈ 5.39 µM) | 4 (≈ 10.8 µM) | 4 (≈ 10.8 µM) | 2 (≈ 5.39 µM) | 4 (≈ 10.8 µM) | 2 (≈ 5.39 µM) | 4 (≈ 10.8 µM) | 2 (≈ 5.39 µM) | 4 (≈ 10.8 µM) | 4 (≈ 10.8 µM) | 4 (≈ 10.8 µM) | 4 (≈ 10.8 µM) | 4 (≈ 10.8 µM) | – | 2 (≈ 5.39 µM) | 4 (≈ 10.8 µM) | [N-]=[N+]=Nc1cc(-c2noc(-c3ccc(O)cc3)n2)ccc1Oc1ccccc1 [Compound 53a, 4-(3-(3-azido-4-phenoxyphenyl)-1,2,4-oxadiazol-5-yl)phenol] | 2 (≈ 5.39 µM) | demonstrated activity |
